{
  "source": "PubChem BioAssay (NCI)",
  "assay_in_all_cases": "NCI anticancer screen, dose series, 48 h",
  "key": {"[1]": {"system": "TK-10 renal"}, "[2]": {"system": "NCI-H460 lung"}, "[3]": {"system": "EKVX NSCLC"}, "[4]": {"system": "MCF7 breast"}, "[5]": {"system": "KM12 colon"}, "[6]": {"system": "UO-31 renal"}, "[7]": {"system": "T-47D breast"}, "[8]": {"system": "BT-549 breast"}, "[9]": {"system": "M14 melanoma"}, "[10]": {"system": "SF-295 CNS"}, "[11]": {"system": "IGROV1 ovarian"}, "[12]": {"system": "RXF 393 renal"}, "[13]": {"system": "PC-3 prostate"}, "[14]": {"system": "CCRF-CEM leukemia"}, "[15]": {"system": "LOX IMVI melanoma"}, "[16]": {"system": "MOLT-4 leukemia"}, "[17]": {"system": "786-0 renal"}, "[18]": {"system": "SK-MEL-2 melanoma"}, "[19]": {"system": "HS 578T breast"}, "[20]": {"system": "COLO 205 colon"}, "[21]": {"system": "A549 NSCLC"}, "[22]": {"system": "A498 renal"}, "[23]": {"system": "SW-620 colon"}, "[24]": {"system": "OVCAR-3 ovarian"}, "[25]": {"system": "SK-MEL-5 melanoma"}, "[26]": {"system": "OVCAR-5 ovarian"}, "[27]": {"system": "K-562 leukemia"}, "[28]": {"system": "UACC-257 melanoma"}, "[29]": {"system": "OVCAR-8 ovarian"}, "[30]": {"system": "ACHN renal"}, "[31]": {"system": "SF-268 CNS"}, "[32]": {"system": "HCT-116 colon"}, "[33]": {"system": "NCI-H23 lung"}, "[34]": {"system": "HCT-15 colon"}, "[35]": {"system": "SK-OV-3 ovarian"}, "[36]": {"system": "HCC-2998 colon"}, "[37]": {"system": "CAKI-1 renal"}, "[38]": {"system": "SR leukemia"}, "[39]": {"system": "NCI-H226 lung"}, "[40]": {"system": "UACC-62 melanoma"}, "[41]": {"system": "RPMI-8226 leukemia"}, "[42]": {"system": "SNB-19 CNS"}, "[43]": {"system": "MDA-MB-435"}, "[44]": {"system": "SN12C renal"}, "[45]": {"system": "U251 CNS"}, "[46]": {"system": "NCI/ADR-RES ovarian"}, "[47]": {"system": "NCI-H522 lung"}, "[48]": {"system": "MDA-MB-231 breast"}},
  "note": "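Briefly, cells in 96-well plates were exposed to five compound concentrations for 48 h, and endpoints were estimated by linear interpolation. GI50 = concentration required for 50% inhibition of growth. TGI denotes the concentration required for complete inhibition of growth.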",
  "data": [
    {"smiles": "Oc1ccc(O)c(-c2cn3c(n2)SCC3)c1", "values": [
      {"measurement": "GI50", "setting": "[1]", "result": 21.3, "unit": "µM"},
      {"measurement": "TGI", "setting": "[1]", "result": 37.3, "unit": "µM"},
      {"measurement": "GI50", "setting": "[2]", "result": 60.9, "unit": "µM"},
      {"measurement": "TGI", "setting": "[2]", "result": "> 100", "unit": "µM"},
      {"measurement": "GI50", "setting": "[3]", "result": 19.5, "unit": "µM"},
      {"measurement": "TGI", "setting": "[3]", "result": 37.3, "unit": "µM"},
      {"measurement": "GI50", "setting": "[4]", "result": 26.8, "unit": "µM"},
      {"measurement": "TGI", "setting": "[4]", "result": "> 100", "unit": "µM"},
      {"measurement": "GI50", "setting": "[5]", "result": 16.9, "unit": "µM"},
      {"measurement": "TGI", "setting": "[5]", "result": 38.2, "unit": "µM"},
      {"measurement": "GI50", "setting": "[6]", "result": 20.7, "unit": "µM"},
      {"measurement": "TGI", "setting": "[6]", "result": "> 100", "unit": "µM"},
      {"measurement": "GI50", "setting": "[7]", "result": 17.5, "unit": "µM"},
      {"measurement": "TGI", "setting": "[7]", "result": 42.2, "unit": "µM"},
      {"measurement": "GI50", "setting": "[8]", "result": 11.8, "unit": "µM"},
      {"measurement": "TGI", "setting": "[8]", "result": 25.7, "unit": "µM"},
      {"measurement": "GI50", "setting": "[9]", "result": 15.5, "unit": "µM"},
      {"measurement": "TGI", "setting": "[9]", "result": 31.3, "unit": "µM"},
      {"measurement": "GI50", "setting": "[10]", "result": 14.8, "unit": "µM"},
      {"measurement": "TGI", "setting": "[10]", "result": 38.7, "unit": "µM"},
      {"measurement": "GI50", "setting": "[11]", "result": 39.9, "unit": "µM"},
      {"measurement": "TGI", "setting": "[11]", "result": "> 100", "unit": "µM"},
      {"measurement": "GI50", "setting": "[12]", "result": 18.4, "unit": "µM"},
      {"measurement": "TGI", "setting": "[12]", "result": 36.2, "unit": "µM"},
      {"measurement": "GI50", "setting": "[13]", "result": 19.1, "unit": "µM"},
      {"measurement": "TGI", "setting": "[13]", "result": 38, "unit": "µM"},
      {"measurement": "GI50", "setting": "[14]", "result": 5.18, "unit": "µM"},
      {"measurement": "TGI", "setting": "[14]", "result": "> 100", "unit": "µM"},
      {"measurement": "GI50", "setting": "[15]", "result": 17.5, "unit": "µM"},
      {"measurement": "TGI", "setting": "[15]", "result": 31.5, "unit": "µM"},
      {"measurement": "GI50", "setting": "[16]", "result": 4.37, "unit": "µM"},
      {"measurement": "TGI", "setting": "[16]", "result": 9.55, "unit": "µM"},
      {"measurement": "GI50", "setting": "[17]", "result": 2.32, "unit": "µM"},
      {"measurement": "TGI", "setting": "[17]", "result": 6.59, "unit": "µM"},
      {"measurement": "GI50", "setting": "[18]", "result": 78.8, "unit": "µM"},
      {"measurement": "TGI", "setting": "[18]", "result": "> 100", "unit": "µM"},
      {"measurement": "GI50", "setting": "[19]", "result": 18.6, "unit": "µM"},
      {"measurement": "TGI", "setting": "[19]", "result": 90.7, "unit": "µM"},
      {"measurement": "GI50", "setting": "[20]", "result": 17, "unit": "µM"},
      {"measurement": "TGI", "setting": "[20]", "result": 37.8, "unit": "µM"},
      {"measurement": "GI50", "setting": "[21]", "result": 47.5, "unit": "µM"},
      {"measurement": "TGI", "setting": "[21]", "result": "> 100", "unit": "µM"},
      {"measurement": "GI50", "setting": "[22]", "result": 20.9, "unit": "µM"},
      {"measurement": "TGI", "setting": "[22]", "result": 75.7, "unit": "µM"},
      {"measurement": "GI50", "setting": "[23]", "result": 3.19, "unit": "µM"},
      {"measurement": "TGI", "setting": "[23]", "result": 8.17, "unit": "µM"},
      {"measurement": "GI50", "setting": "[24]", "result": 9.36, "unit": "µM"},
      {"measurement": "TGI", "setting": "[24]", "result": 28.1, "unit": "µM"},
      {"measurement": "GI50", "setting": "[25]", "result": 16.9, "unit": "µM"},
      {"measurement": "TGI", "setting": "[25]", "result": 33, "unit": "µM"},
      {"measurement": "GI50", "setting": "[26]", "result": 17.5, "unit": "µM"},
      {"measurement": "TGI", "setting": "[26]", "result": 33.3, "unit": "µM"},
      {"measurement": "GI50", "setting": "[27]", "result": 7.24, "unit": "µM"},
      {"measurement": "TGI", "setting": "[27]", "result": "> 100", "unit": "µM"},
      {"measurement": "GI50", "setting": "[28]", "result": 25.5, "unit": "µM"},
      {"measurement": "TGI", "setting": "[28]", "result": 55.8, "unit": "µM"},
      {"measurement": "GI50", "setting": "[29]", "result": 19.7, "unit": "µM"},
      {"measurement": "TGI", "setting": "[29]", "result": 52.1, "unit": "µM"},
      {"measurement": "GI50", "setting": "[30]", "result": 20.4, "unit": "µM"},
      {"measurement": "TGI", "setting": "[30]", "result": 34.7, "unit": "µM"},
      {"measurement": "GI50", "setting": "[31]", "result": 28.7, "unit": "µM"},
      {"measurement": "TGI", "setting": "[31]", "result": "> 100", "unit": "µM"},
      {"measurement": "GI50", "setting": "[32]", "result": 3.07, "unit": "µM"},
      {"measurement": "TGI", "setting": "[32]", "result": 7.81, "unit": "µM"},
      {"measurement": "GI50", "setting": "[33]", "result": 24.4, "unit": "µM"},
      {"measurement": "TGI", "setting": "[33]", "result": 73.4, "unit": "µM"},
      {"measurement": "GI50", "setting": "[34]", "result": 19.1, "unit": "µM"},
      {"measurement": "TGI", "setting": "[34]", "result": 36.9, "unit": "µM"},
      {"measurement": "GI50", "setting": "[35]", "result": 12.5, "unit": "µM"},
      {"measurement": "TGI", "setting": "[35]", "result": 40.6, "unit": "µM"},
      {"measurement": "GI50", "setting": "[36]", "result": 19.6, "unit": "µM"},
      {"measurement": "TGI", "setting": "[36]", "result": 36.2, "unit": "µM"},
      {"measurement": "GI50", "setting": "[37]", "result": 2.47, "unit": "µM"},
      {"measurement": "TGI", "setting": "[37]", "result": 5.57, "unit": "µM"},
      {"measurement": "GI50", "setting": "[38]", "result": 4.03, "unit": "µM"},
      {"measurement": "TGI", "setting": "[38]", "result": 10.4, "unit": "µM"},
      {"measurement": "GI50", "setting": "[39]", "result": 6.85, "unit": "µM"},
      {"measurement": "TGI", "setting": "[39]", "result": 28.6, "unit": "µM"},
      {"measurement": "GI50", "setting": "[40]", "result": 11.2, "unit": "µM"},
      {"measurement": "TGI", "setting": "[40]", "result": 24.7, "unit": "µM"},
      {"measurement": "GI50", "setting": "[41]", "result": 4.08, "unit": "µM"},
      {"measurement": "TGI", "setting": "[41]", "result": "> 100", "unit": "µM"},
      {"measurement": "GI50", "setting": "[42]", "result": 21.3, "unit": "µM"},
      {"measurement": "TGI", "setting": "[42]", "result": 45.4, "unit": "µM"},
      {"measurement": "GI50", "setting": "[43]", "result": 15.8, "unit": "µM"},
      {"measurement": "TGI", "setting": "[43]", "result": 35.2, "unit": "µM"},
      {"measurement": "GI50", "setting": "[44]", "result": 13.9, "unit": "µM"},
      {"measurement": "TGI", "setting": "[44]", "result": 29.2, "unit": "µM"},
      {"measurement": "GI50", "setting": "[45]", "result": 18.3, "unit": "µM"},
      {"measurement": "TGI", "setting": "[45]", "result": 33.6, "unit": "µM"},
      {"measurement": "GI50", "setting": "[46]", "result": 17.2, "unit": "µM"},
      {"measurement": "TGI", "setting": "[46]", "result": 39.1, "unit": "µM"},
      {"measurement": "GI50", "setting": "[47]", "result": 4.93, "unit": "µM"},
      {"measurement": "TGI", "setting": "[47]", "result": "> 100", "unit": "µM"},
      {"measurement": "GI50", "setting": "[48]", "result": 11.7, "unit": "µM"},
      {"measurement": "TGI", "setting": "[48]", "result": 26.5, "unit": "µM"}
    ]}
  ]
}
